This is an account of results in patent publication US20140343000A1 (priority 2011, published 2014).

The structures appear in SMILES notation.

The first test deals with recombinant NL4-3 virus (Renilla luciferase in nef, Gag P373S; NLRluc) in MT-2 cells. Put plainly: whole plant or invertebrate. Type of test: cell-based, HIV. To be noted: Renilla, NL43, luciferase activity in cells infected for 4-5 days with NLRluc recombinants, serial dilutions of inhibitor; class symbols (key in Table 1); read-out: EC50. An outline of the steps:
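Read-out is Renilla luciferase, measured immediately after adding a premixed lysis/Dual Luciferase reagent. The reporter virus, NL4-3 with luciferase replacing part of nef plus Gag P373S, infected MT-2 cells for 4–5 days under serially diluted inhibitor.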
For orientation: EC50 means the concentration at which the effect is half-maximal. As to `C=C(C)[C@@H]1CC[C@]2(NCCN3CCN(S(=O)(=O)c4cccnc4)CC3)CC[C@]3(C)[C@H](CC[C@@H]4[C@@]5(C)CC=C(c6ccc(C(=O)O)cc6)C(C)(C)[C@@H]5CC[C@]43C)[C@@H]12` [Example B36, 4-((1R,3aS,5aR,5bR,7aR,11aS,11bR,13aR,13bR)-5a,5b,8,8,11a-pentamethyl-1-(prop-1-en-2-yl)-3a-((2-(4-(pyridin-3-ylsulfonyl)piperazin-1-yl)ethyl)amino)-2,3,3a,4,5,5a,5b,6,7,7a,8,11,11a,11b,12,13,13a,13b-octadecahydro-1H-cyclopenta[a]chrysen-9-yl)benzoic acid], the EC50 was less than 100 nM.

With `C=C(C)[C@@H]1CC[C@]2(NCCN3CCN(S(=O)(=O)N(CC)CC)CC3)CC[C@]3(C)[C@H](CC[C@@H]4[C@@]5(C)CC=C(c6ccc(C(=O)O)cc6)C(C)(C)[C@@H]5CC[C@]43C)[C@@H]12` [Example B37, 4-((1R,3aS,5aR,5bR,7aR,11aS,11bR,13aR,13bR)-3a-((2-(4-(N,N-diethylsulfamoyl)piperazin-1-yl)ethyl)amino)-5a,5b,8,8,11a-pentamethyl-1-(prop-1-en-2-yl)-2,3,3a,4,5,5a,5b,6,7,7a,8,11,11a,11b,12,13,13a,13b-octadecahydro-1H-cyclopenta[a]chrysen-9-yl)benzoic acid], the half-maximal effective concentration (EC50) is less than 100 nM.

As for `C=C(C)[C@@H]1CC[C@]2(NCCN3CCN(S(=O)(=O)CCCCl)CC3)CC[C@]3(C)[C@H](CC[C@@H]4[C@@]5(C)CC=C(c6ccc(C(=O)O)cc6)C(C)(C)[C@@H]5CC[C@]43C)[C@@H]12` [Example B38, 4-((1R,3aS,5aR,5bR,7aR,11aS,11bR,13aR,13bR)-3a-((2-(4-((3-chloropropyl)sulfonyl)piperazin-1-yl)ethyl)amino)-5a,5b,8,8,11a-pentamethyl-1-(prop-1-en-2-yl)-2,3,3a,4,5,5a,5b,6,7,7a,8,11,11a,11b,12,13,13a,13b-octadecahydro-1H-cyclopenta[a]chrysen-9-yl)benzoic acid], the EC50 is less than 100 nM.

For the compound `C=C(C)[C@@H]1CC[C@]2(NCCN3CCN(S(=O)(=O)CCCC)CC3)CC[C@]3(C)[C@H](CC[C@@H]4[C@@]5(C)CC=C(c6ccc(C(=O)O)cc6)C(C)(C)[C@@H]5CC[C@]43C)[C@@H]12` [Example B39, 4-((1R,3aS,5aR,5bR,7aR,11aS,11bR,13aR,13bR)-3a-((2-(4-(butylsulfonyl)piperazin-1-yl)ethyl)amino)-5a,5b,8,8,11a-pentamethyl-1-(prop-1-en-2-yl)-2,3,3a,4,5,5a,5b,6,7,7a,8,11,11a,11b,12,13,13a,13b-octadecahydro-1H-cyclopenta[a]chrysen-9-yl)benzoic acid], the EC50 was less than 100 nM.

Regarding `C=C(C)[C@@H]1CC[C@]2(NCCN3CCN(S(=O)(=O)c4ccc(CC)cc4)CC3)CC[C@]3(C)[C@H](CC[C@@H]4[C@@]5(C)CC=C(c6ccc(C(=O)O)cc6)C(C)(C)[C@@H]5CC[C@]43C)[C@@H]12` [Example B40, 4-((1R,3aS,5aR,5bR,7aR,11aS,11bR,13aR,13bR)-3a-((2-(4-((4-ethylphenyl)sulfonyl)piperazin-1-yl)ethyl)amino)-5a,5b,8,8,11a-pentamethyl-1-(prop-1-en-2-yl)-2,3,3a,4,5,5a,5b,6,7,7a,8,11,11a,11b,12,13,13a,13b-octadecahydro-1H-cyclopenta[a]chrysen-9-yl)benzoic acid], the EC50 was less than 100 nM.

`C=C(C)[C@@H]1CC[C@]2(NCCN3CCN(S(=O)(=O)Cc4ccccc4)CC3)CC[C@]3(C)[C@H](CC[C@@H]4[C@@]5(C)CC=C(c6ccc(C(=O)O)cc6)C(C)(C)[C@@H]5CC[C@]43C)[C@@H]12` [Example B41, 4-((1R,3aS,5aR,5bR,7aR,11aS,11bR,13aR,13bR)-3a-((2-(4-(benzylsulfonyl)piperazin-1-yl)ethyl)amino)-5a,5b,8,8,11a-pentamethyl-1-(prop-1-en-2-yl)-2,3,3a,4,5,5a,5b,6,7,7a,8,11,11a,11b,12,13,13a,13b-octadecahydro-1H-cyclopenta[a]chrysen-9-yl)benzoic acid]: the EC50 was less than 100 nM.

As to `C=C(C)[C@@H]1CC[C@]2(NCCN3CCN(S(=O)(=O)CS(C)(=O)=O)CC3)CC[C@]3(C)[C@H](CC[C@@H]4[C@@]5(C)CC=C(c6ccc(C(=O)O)cc6)C(C)(C)[C@@H]5CC[C@]43C)[C@@H]12` [Example B42, 4-((1R,3aS,5aR,5bR,7aR,11aS,11bR,13aR,13bR)-5a,5b,8,8,11a-pentamethyl-3a-((2-(4-(((methylsulfonyl)methyl)sulfonyl)piperazin-1-yl)ethyl)amino)-1-(prop-1-en-2-yl)-2,3,3a,4,5,5a,5b,6,7,7a,8,11,11a,11b,12,13,13a,13b-octadecahydro-1H-cyclopenta[a]chrysen-9-yl)benzoic acid], the concentration for a half-maximal effect (EC50) is less than 100 nM.

As for `C=C(C)[C@@H]1CC[C@]2(NCCN3CCN(S(=O)(=O)c4cn(C)cn4)CC3)CC[C@]3(C)[C@H](CC[C@@H]4[C@@]5(C)CC=C(c6ccc(C(=O)O)cc6)C(C)(C)[C@@H]5CC[C@]43C)[C@@H]12` [Example B43, 4-((1R,3aS,5aR,5bR,7aR,11aS,11bR,13aR,13bR)-5a,5b,8,8,11a-pentamethyl-3a-((2-(4-((1-methyl-1H-imidazol-4-yl)sulfonyl)piperazin-1-yl)ethyl)amino)-1-(prop-1-en-2-yl)-2,3,3a,4,5,5a,5b,6,7,7a,8,11,11a,11b,12,13,13a,13b-octadecahydro-1H-cyclopenta[a]chrysen-9-yl)benzoic acid], the concentration for a half-maximal effect (EC50) was less than 100 nM.

Consider `C=C(C)[C@@H]1CC[C@]2(NCCN3CCN(S(=O)(=O)c4ccccc4)CC3)CC[C@]3(C)[C@H](CC[C@@H]4[C@@]5(C)CC=C(c6ccc(C(=O)O)cc6)C(C)(C)[C@@H]5CC[C@]43C)[C@@H]12` [Example B44, 4-((1R,3aS,5aR,5bR,7aR,11aS,11bR,13aR,13bR)-5a,5b,8,8,11a-pentamethyl-3a-((2-(4-(phenylsulfonyl)piperazin-1-yl)ethyl)amino)-1-(prop-1-en-2-yl)-2,3,3a,4,5,5a,5b,6,7,7a,8,11,11a,11b,12,13,13a,13b-octadecahydro-1H-cyclopenta[a]chrysen-9-yl)benzoic acid], for which the EC50 is less than 100 nM.

Turning to `C=C(C)[C@@H]1CC[C@]2(NCCN3CCN(S(=O)(=O)c4ccc(Cl)cc4)CC3)CC[C@]3(C)[C@H](CC[C@@H]4[C@@]5(C)CC=C(c6ccc(C(=O)O)cc6)C(C)(C)[C@@H]5CC[C@]43C)[C@@H]12` [Example B46, 4-((1R,3aS,5aR,5bR,7aR,11aS,11bR,13aR,13bR)-3a-((2-(4-((4-chlorophenyl)sulfonyl)piperazin-1-yl)ethyl)amino)-5a,5b,8,8,11a-pentamethyl-1-(prop-1-en-2-yl)-2,3,3a,4,5,5a,5b,6,7,7a,8,11,11a,11b,12,13,13a,13b-octadecahydro-1H-cyclopenta[a]chrysen-9-yl)benzoic acid], the EC50 is less than 100 nM.

Take `C=C(C)[C@@H]1CC[C@]2(NCCN3CCN(S(=O)(=O)c4ccc(OC)cc4)CC3)CC[C@]3(C)[C@H](CC[C@@H]4[C@@]5(C)CC=C(c6ccc(C(=O)O)cc6)C(C)(C)[C@@H]5CC[C@]43C)[C@@H]12` [Example B47, 4-((1R,3aS,5aR,5bR,7aR,11aS,11bR,13aR,13bR)-3a-((2-(4-((4-methoxyphenyl)sulfonyl)piperazin-1-yl)ethyl)amino)-5a,5b,8,8,11a-pentamethyl-1-(prop-1-en-2-yl)-2,3,3a,4,5,5a,5b,6,7,7a,8,11,11a,11b,12,13,13a,13b-octadecahydro-1H-cyclopenta[a]chrysen-9-yl)benzoic acid]: the 50% effective concentration (EC50) was less than 100 nM.

As to `C=C(C)[C@@H]1CC[C@]2(NCCN3CCN(S(=O)(=O)c4ccc(C)cc4)CC3)CC[C@]3(C)[C@H](CC[C@@H]4[C@@]5(C)CC=C(c6ccc(C(=O)O)cc6)C(C)(C)[C@@H]5CC[C@]43C)[C@@H]12` [Example B48, 4-((1R,3aS,5aR,5bR,7aR,11aS,11bR,13aR,13bR)-5a,5b,8,8,11a-pentamethyl-1-(prop-1-en-2-yl)-3a-((2-(4-tosylpiperazin-1-yl)ethyl)amino)-2,3,3a,4,5,5a,5b,6,7,7a,8,11,11a,11b,12,13,13a,13b-octadecahydro-1H-cyclopenta[a]chrysen-9-yl)benzoic acid], the half-maximal effective concentration (EC50) is less than 100 nM.

As to `C=C(C)[C@@H]1CC[C@]2(NCCN3CCN(S(=O)(=O)c4cccc5ccccc45)CC3)CC[C@]3(C)[C@H](CC[C@@H]4[C@@]5(C)CC=C(c6ccc(C(=O)O)cc6)C(C)(C)[C@@H]5CC[C@]43C)[C@@H]12` [Example B49, 4-((1R,3aS,5aR,5bR,7aR,11aS,11bR,13aR,13bR)-5a,5b,8,8,11a-pentamethyl-3a-((2-(4-(naphthalen-1-ylsulfonyl)piperazin-1-yl)ethyl)amino)-1-(prop-1-en-2-yl)-2,3,3a,4,5,5a,5b,6,7,7a,8,11,11a,11b,12,13,13a,13b-octadecahydro-1H-cyclopenta[a]chrysen-9-yl)benzoic acid], the EC50 is less than 100 nM.

Staying with this test, now noted: Renilla, NL43, luciferase activity in cells infected for 4-5 days with NLRluc recombinants, serial dilutions of inhibitor; numeric values; read-out: EC50.
Turning to `C=C(C)[C@@H]1CC[C@]2(NCCN3CCN(S(=O)(=O)c4cccc(OC)c4)CC3)CC[C@]3(C)[C@H](CC[C@@H]4[C@@]5(C)CC=C(c6ccc(C(=O)O)cc6)C(C)(C)[C@@H]5CC[C@]43C)[C@@H]12` [Example B45, 4-((1R,3aS,5aR,5bR,7aR,11aS,11bR,13aR,13bR)-3a-((2-(4-((3-methoxyphenyl)sulfonyl)piperazin-1-yl)ethyl)amino)-5a,5b,8,8,11a-pentamethyl-1-(prop-1-en-2-yl)-2,3,3a,4,5,5a,5b,6,7,7a,8,11,11a,11b,12,13,13a,13b-octadecahydro-1H-cyclopenta[a]chrysen-9-yl)benzoic acid], the EC50 amounted to 4 nM.
